Experimental findings from patent US9499492B2, “4-(ortho)-fluorophenyl-5-fluoropyrimidin-2-yl amines containing a sulfoximine group” (BAYER PHARMA AKTIENGESELLSCHAFT, priority 2012, dated 2016) are described below.

The subject of test [1] is HeLa, human cervical tumour cells. Kind of test: Proliferation assay, HeLa (Method 3). It counts as cell-based. The conditions noted are these: 4 days, crystal violet, read-out: Inhibition of HeLa cell proliferation IC50. As to the method:
(§1) After 24 hours, the cells of one plate (zero-point plate) were stained with crystal violet (see below), while the medium of the other plates was replaced by fresh culture medium (200 μl), to which the test substances were added in various concentrations (0 μM, as well as in the range of 0.001-10 μM; the final concentration of the solvent dimethyl sulfoxide was 0.5%). The cells were incubated for 4 days in the presence of test substances. Cell proliferation was determined by staining the cells with crystal violet: the cells were fixed by adding 20 μl/measuring point of an 11% glutaric aldehyde solution for 15 minutes at room temperature. After three washing cycles of the fixed cells with water, the plates were dried at room temperature. The cells were stained by adding 100 μl/measuring point of a 0.1% crystal violet solution (pH 3.0). After three washing cycles of the stained cells with water, the plates were dried at room temperature. The dye was dissolved by adding 100 μl/measuring point of a 10% acetic acid solution. The extinction was determined by photometry at a wavelength of 595 nm. The change of cell number, in percent, was calculated by normalization of the measured values to the extinction values of the zero-point plate (=0%) and the extinction of the untreated (0 μm) cells (=100%).

Test [2] concerns A2780, human ovarian carcinoma cells. Kind of test: Proliferation assay, A2780 (Method 3). It counts as cell-based. Particulars: A2780, 4 days, crystal violet, read-out: Inhibition of A2780 cell proliferation IC50. As to the method:
as §1

Test [3] deals with CDK2/CycE (Homo sapiens (Human), UniProt P24941). The test is described as follows: CDK2/CycE kinase assay (Method 2). It is filed as biochemical. The conditions noted are these: 10 μM ATP. An excerpt: 2. CDK2/CycE Kinase Assay:
CDK2/CycE-inhibitory activity of compounds of the present invention was quantified employing the CDK2/CycE TR-FRET assay as described in the following paragraphs:
Recombinant fusion proteins of GST and human CDK2 and of GST and human CycE, expressed in insect cells (Sf9) and purified by Glutathion-Sepharose affinity chromatography, were purchased from ProQinase GmbH (Freiburg, Germany). As substrate for the kinase reaction biotinylated peptide biotin-Ttds-[…] (C-terminus in amid form) was used which can be purchased e.g. form the company JERINI Peptide Technologies (Berlin, Germany).
(§2) For the assay 50 nl of a 100 fold concentrated solution of the test compound in DMSO was pipetted into a black low volume 384 well microtiter plate (Greiner Bio-One, Frickenhausen, Germany), 2 μl of a solution of CDK2/CycE in aqueous assay buffer [50 mM Tris/HCl pH 8.0, 10 mM MgCl2, 1.0 mM dithiothreitol, 0.1 mM sodium ortho-vanadate, 0.01% (v/v) Nonidet-P40 (Sigma)] were added and the mixture was incubated for 15 min at 22° C. to allow pre-binding of the test compounds to the enzyme before the start of the kinase reaction. […] The concentration of CDK2/CycE was adjusted depending of the activity of the enzyme lot and was chosen appropriate to have the assay in the linear range, typical concentrations were in the range of 130 ng/ml.
(§3) The resulting mixture was incubated 1 h at 22° C. to allow the formation of complex between the phosphorylated biotinylated peptide and the detection reagents. Subsequently the amount of phosphorylated substrate was evaluated by measurement of the resonance energy transfer from the Eu-chelate to the streptavidine-XL. Therefore, the fluorescence emissions at 620 nm and 665 nm after excitation at 350 nm was measured in a TR-FRET reader, e.g. a Rubystar (BMG Labtechnologies, Offenburg, Germany) or a Viewlux (Perkin-Elmer). The ratio of the emissions at 665 nm and at 622 nm was taken as the measure for the amount of phosphorylated substrate.

The target of test [4] is CDK9/CycT1 (Homo sapiens (Human), UniProt P50750). Kind of test: CDK9/CycT1 kinase assay (Method 1a). It counts as biochemical. Particulars: for IC50: 10 μM ATP; for Selectivity CDK9/CDK2: derived from Methods 1a. and 2.
Sequence of CDK9/CycT1 (P50750 whole entry): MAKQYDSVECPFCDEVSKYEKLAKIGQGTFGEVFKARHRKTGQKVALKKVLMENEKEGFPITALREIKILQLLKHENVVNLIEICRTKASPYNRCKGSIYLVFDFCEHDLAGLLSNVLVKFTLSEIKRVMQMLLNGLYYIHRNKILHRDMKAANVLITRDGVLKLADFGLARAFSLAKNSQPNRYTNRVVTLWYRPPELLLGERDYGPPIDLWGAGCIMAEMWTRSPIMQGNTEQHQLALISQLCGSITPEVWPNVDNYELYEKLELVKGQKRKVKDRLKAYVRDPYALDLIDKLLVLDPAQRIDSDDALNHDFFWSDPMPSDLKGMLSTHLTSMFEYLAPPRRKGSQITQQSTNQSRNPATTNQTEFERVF
Sequence of CDK9/CycT1 (O60563 whole entry partner): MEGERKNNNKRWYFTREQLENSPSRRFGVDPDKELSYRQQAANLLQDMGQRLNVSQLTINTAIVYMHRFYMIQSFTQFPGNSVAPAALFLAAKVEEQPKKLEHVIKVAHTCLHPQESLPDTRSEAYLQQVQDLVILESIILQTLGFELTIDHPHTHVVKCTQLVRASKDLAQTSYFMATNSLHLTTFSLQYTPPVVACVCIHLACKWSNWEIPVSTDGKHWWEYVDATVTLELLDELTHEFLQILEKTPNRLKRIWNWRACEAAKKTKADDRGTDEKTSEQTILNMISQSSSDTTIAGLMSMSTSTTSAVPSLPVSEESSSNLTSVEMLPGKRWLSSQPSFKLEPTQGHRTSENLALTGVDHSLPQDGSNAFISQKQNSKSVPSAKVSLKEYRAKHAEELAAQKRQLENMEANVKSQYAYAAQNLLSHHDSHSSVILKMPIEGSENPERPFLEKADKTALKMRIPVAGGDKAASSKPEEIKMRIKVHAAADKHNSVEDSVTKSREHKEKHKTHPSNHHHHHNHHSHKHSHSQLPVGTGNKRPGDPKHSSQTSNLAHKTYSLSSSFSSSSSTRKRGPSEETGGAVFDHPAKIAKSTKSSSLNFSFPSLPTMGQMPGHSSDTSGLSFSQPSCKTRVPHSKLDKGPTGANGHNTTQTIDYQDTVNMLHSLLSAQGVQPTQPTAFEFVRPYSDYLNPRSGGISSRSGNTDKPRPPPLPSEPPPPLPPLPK
Source text: 1a. CDK9/CycT1 Kinase Assay:
CDK9/CycT1-inhibitory activity of compounds of the present invention was quantified employing the CDK9/CycT1 TR-FRET assay as described in the following paragraphs:
Recombinant full-length His-tagged human CDK9 and CycT1, expressed in insect cells and purified by Ni-NTA affinity chromatography, were purchased from Invitrogen (Cat. No PV4131). As substrate for the kinase reaction biotinylated peptide biotin-Ttds-[…] (C-terminus in amid form) was used which can be purchased e.g. form the company JERINI Peptide Technologies (Berlin, Germany).
as §2, with “CDK9/CycT1” for “CDK2/CycE”, “1 μg/ml.” for “130 ng/ml.”
as §3, with “HTRF” for “TR-FRET”

Read-outs that look alike come from different tables or passages of the source.

On to `Cc1cc(CS(C)(=O)=NC#N)cc(Nc2ncc(F)c(-c3ccc(F)cc3F)n2)c1` (racemic) [Example 16, (rac)-[(3-{[4-(2,4-Difluorophenyl)-5-fluoropyrimidin-2-yl]amino}-5-methylbenzyl)(methyl)oxido-λ^6-sulfanylidene]cyanamide], for which the IC50 stood at 850 nM in test [1] (Homo sapiens, 96 h); 300 nM in test [2] (Homo sapiens, A2780, 96 h); 470 nM in test [3].

Take `CS(=N)(=O)Cc1cc(F)cc(Nc2ncc(F)c(-c3ccc(F)cc3F)n2)c1` (single isomer, unassigned) [Example 13, 4-(2,4-Difluorophenyl)-5-fluoro-N-{3-fluoro-5-[(S-methylsulfonimidoyl)methyl]phenyl}pyrimidin-2-amine]: the IC50 in test [1] was 1760 nM; in test [2], over 1000 nM; in test [3], 730 nM.

For `COc1cc(CS(C)(=N)=O)cc(Nc2ncc(F)c(-c3ccc(F)cc3F)n2)c1` (racemic) [Example 21, (rac)-4-(2,4-Difluorophenyl)-5-fluoro-N-{3-methoxy-5-[(S-methylsulfonimidoyl)methyl]phenyl}pyrimidin-2-amine], the IC50 in test [1] (Homo sapiens, 96 h) is 780 nM.

`CS(=N)(=O)Cc1cc(F)cc(Nc2ncc(F)c(-c3ccc(F)cc3F)n2)c1` (single isomer, unassigned) [Example 12, 4-(2,4-Difluorophenyl)-5-fluoro-N-{3-fluoro-5-[(S-methylsulfonimidoyl)methyl]phenyl}pyrimidin-2-amine]: the IC50 in test [1] (Homo sapiens, 96 h) is 1940 nM; in test [2] (Homo sapiens, A2780, 96 h) it was over 1000 nM; in test [3] it was 1700 nM.

Consider `CS(=N)(=O)Cc1cc(Br)cc(Nc2ncc(F)c(-c3ccc(F)cc3F)n2)c1` (single isomer, unassigned) [Example 41, N-{3-Bromo-5-[(S-methylsulfonimidoyl)methyl]phenyl}-4-(2,4-difluorophenyl)-5-fluoropyrimidin-2-amine], for which, in test [4], the IC50 is 18 nM and the “Selectivity CDK9/CDK2” value stood at 28. Moreover, the IC50 in test [3] was 509 nM.

For the compound `Cc1cc(CS(C)(=O)=NC#N)cc(Nc2ncc(F)c(-c3ccc(F)cc3F)n2)c1` (single isomer, unassigned) [Example 36, [(3-{[4-(2,4-Difluorophenyl)-5-fluoro-pyrimidin-2-yl]amino}-5-methylbenzyl)-(methyl)oxido-λ^6-sulfanylidene]cyanamide], the IC50 in test [1] amounted to 1020 nM; in test [2], 338 nM; in test [3], 400 nM.

As for `CS(=O)(Cc1cc(Br)cc(Nc2ncc(F)c(-c3ccc(F)cc3F)n2)c1)=NC#N` (single isomer, unassigned) [Example 39, [(3-Bromo-5-{[4-(2,4-difluorophenyl)-5-fluoropyrimidin-2-yl]amino}benzyl)(methyl)oxido-λ^6-sulfanylidene]cyanamide], the IC50 stood at 1060 nM in test [1] (Homo sapiens, 96 h); 619 nM in test [2] (Homo sapiens, A2780, 96 h); 430 nM in test [3].

As to `Cc1cc(CS(C)(=O)=NC#N)cc(Nc2ncc(F)c(-c3ccc(F)cc3F)n2)c1` (single isomer, unassigned) [Example 35, [(3-{[4-(2,4-Difluorophenyl)-5-fluoro-pyrimidin-2-yl]amino}-5-methylbenzyl)-(methyl)oxido-λ^6-sulfanylidene]cyanamide], the IC50 in test [1] is 458 nM; in test [2] (Homo sapiens, A2780, 96 h), 327 nM; in test [3] it was 390 nM.

For the compound `CS(=O)(Cc1cc(Br)cc(Nc2ncc(F)c(-c3ccc(F)cc3F)n2)c1)=NC#N` (single isomer, unassigned) [Example 40, [(3-Bromo-5-{[4-(2,4-difluorophenyl)-5-fluoropyrimidin-2-yl]amino}benzyl)(methyl)oxido-λ^6-sulfanylidene]cyanamide], the figures for the IC50 in test [1], in test [2] and in test [3] were 697 nM, 371 nM and 102 nM, respectively.

Turning to `CS(=O)(Cc1cc(F)cc(Nc2ncc(F)c(-c3ccc(F)cc3F)n2)c1)=NC#N` (racemic) [Example 10, (rac)-[(3-{[4-(2,4-Difluorophenyl)-5-fluoropyrimidin-2-yl]amino}-5-fluorobenzyl)(methyl)oxido-λ^6-sulfanylidene]cyanamide], the IC50 in test [1] (Homo sapiens, 96 h) stood at 1050 nM; in test [2] (Homo sapiens, A2780, 96 h), 430 nM; in test [3] it was 570 nM.

With `CCOC(=O)N=S(C)(=O)Cc1cccc(Nc2ncc(F)c(-c3ccc(F)cc3F)n2)c1` (racemic) [Example 8, (rac)-Ethyl[(3-{[4-(2,4-difluorophenyl)-5-fluoropyrimidin-2-yl]amino}benzyl)(methyl)oxido-λ^6-sulfanylidene]carbamate], the IC50 in test [1] (Homo sapiens, 96 h) worked out at 4470 nM; in test [3], 560 nM.

For `CS(=N)(=O)Cc1cc(Br)cc(Nc2ncc(F)c(-c3ccc(F)cc3F)n2)c1` (racemic) [Example 19, (rac)-N-{3-Bromo-5-[(S-methylsulfonimidoyl)methyl]phenyl}-4-(2,4-difluorophenyl)-5-fluoropyrimidin-2-amine], the IC50 in test [4] was determined as 13 nM; in test [1] (Homo sapiens, 96 h), 1600 nM; in test [3], 380 nM. Also, the “Selectivity CDK9/CDK2” value in test [4] was determined as 30.

Take `CS(=N)(=O)Cc1cc(F)cc(Nc2ncc(F)c(-c3ccc(F)cc3F)n2)c1` (racemic) [Example 11, (rac)-4-(2,4-Difluorophenyl)-5-fluoro-N-{3-fluoro-5-[(S-methylsulfonimidoyl)methyl]phenyl}pyrimidin-2-amine]: the IC50 in test [1] (Homo sapiens, 96 h) amounted to 1320 nM; in test [2] (Homo sapiens, A2780, 96 h), 900 nM.
